According to ChEMBL document CHEMBL4699427, “A3- and A2B-fluorocorroles: synthesis, X-ray characterization and antiviral activity evaluation against human cytomegalovirus infection” (RSC Med Chem, 2020):
Each block holds one molecule with its values, some of them ahead of it. The source made the active and inactive calls. The rule behind the calls is not given here.

How the values were obtained:
Human betaherpesvirus 5 [1] = test: Antiviral activity against human Cytomegalovirus infected in human MRC5 cells assessed as reduction in viral replication at 0.75 uM incubated for 6 days by Hoechst 33342 staining based microscopic analysis; format: functional, cell-based; settings: time 6.0 day
Human betaherpesvirus 5 [2] = test: Antiviral activity against human Cytomegalovirus harboring ANCHOR infected in ARPE-19 cells assessed as reduction in infection rate preincubated for 2 hrs with cells followed by infected with virus and measured after 24 hrs by Hoechst 33342 staining based microscopic analysis; format: functional, cell-based; settings: dose microM 0.187-3, time 26.0 hrs
Human betaherpesvirus 5 [3] = test: Antiviral activity against human Cytomegalovirus infected in human ARPE-19 cells assessed as reduction in viral DNA replication at 0.187-3 uM incubated for 18 hrs by Hoechst 33342 staining based microscopic analysis; format: functional, cell-based; settings: dose microM 0.187-3, time 18.0 hrs
Human betaherpesvirus 5 [4] = test: Induction of viral absorption in human Cytomegalovirus harboring ANCHOR infected in human ARPE-19 cells at 0.187 to 3 uM incubated for 18 hrs post infection by Hoechst 33342 staining based microscopic analysis; format: functional, organism-based; settings: dose microM 0.187-3, time 18.0 hrs
Human betaherpesvirus 5 [5] = test: Antiviral activity against human Cytomegalovirus infected in human MRC5 cells assessed as reduction in infection rate at 0.187 to 3 uM preincubated for 1 hr with cells by Hoechst 33342 staining based microscopic analysis; format: functional, cell-based; settings: dose microM 0.187-3, time 1.0 hrs
[6] = Selectivity index, ratio of CC50 for human MRC5 cells to IC50 for human Cytomegalovirus infected in human MRC5 cells incubated for 6 days; format: toxicity, cell-based; settings: time 6 day, read-out: Ratio CC50/IC50
Human betaherpesvirus 5 [7] = test: Antiviral activity against Human Cytomegalovirus infected in human MRC5 cells assessed as reduction in infection rate incubated for 6 days by Hoechst 33342 staining based microscopic analysis; format: functional, cell-based; settings: Human betaherpesvirus 5, MRC5, 144 h; read-out: IC50
Human betaherpesvirus 5 [8] = test: Virucidal activity against human Cytomegalovirus infected in APRE-19 cells at 0.187 to 3 uM preincubated for 1 hr with virus followed by cell line addition and measured after 24 hrs by Hoechst 33342 staining based microscopic analysis; format: functional; settings: ARPE-19, dose microM 0.187-3, time 25.0 hrs
Human betaherpesvirus 5 [9] = test: Induction of viral entry in human Cytomegalovirus harboring ANCHOR infected in human ARPE-19 cells at 0.187 to 3 uM incubated for 18 hrs by Hoechst 33342 staining based microscopic analysis; format: functional, organism-based; settings: dose microM 0.187-3, time 18.0 hrs
Human betaherpesvirus 5 [10] = test: Antiviral activity against human Cytomegalovirus harboring ANCHOR assessed as reduction in viral DNA replication incubated for 1 hr followed by cell line addition and measured after 24 hrs by Hoechst 33342 staining based microscopic analysis; format: functional; settings: ARPE-19, dose microM 0.187-3, time 25.0 hrs
Human betaherpesvirus 5 [11] = test: Antiviral activity against human Cytomegalovirus harboring ANCHOR infected in ARPE-19 cells assessed as reduction in viral DNA replication preincubated for 2 hrs with cells followed by infected with virus and measured after 24 hrs by Hoechst 33342 staining based microscopic analysis; format: functional, cell-based; settings: dose microM 0.187-3, time 26.0 hrs
[12] = Selectivity index, ratio of CC50 for human MRC5 cells to IC50 for human Cytomegalovirus infected in human ARPE-19 cells incubated for 12 days; format: toxicity, cell-based; settings: time 6 day, read-out: Ratio CC50/IC50
Human betaherpesvirus 5 [13] = test: Virucidal activity against human Cytomegalovirus infected in MRC-5 cells at 0.187 to 3 uM preincubated for 1 hr with virus followed by cell line addition and measured after 24 hrs by Hoechst 33342 staining based microscopic analysis; format: functional; settings: MRC5, dose microM 0.187-3, time 25.0 hrs
[14] = Cytotoxicity against human MRC5 cells assessed as reduction in cell viability incubated for 6 days by Hoechst 33342 staining based microscopic analysis; settings: time 6 day
Human betaherpesvirus 5 [15] = test: Antiviral activity against human Cytomegalovirus infected in human MRC5 cells assessed as reduction in infection rate at 0.187 to 3 uM treated 24 hrs after infection measured after 6 days by Hoechst 33342 staining based microscopic analysis; format: functional, cell-based; settings: dose microM 0.187-3, time 6.0 day
Human betaherpesvirus 5 [16] = test: Induction of viral absorption in human Cytomegalovirus harboring ANCHOR infected in human MRC-5 cells at 0.187 to 3 uM incubated for 18 hrs post infection by Hoechst 33342 staining based microscopic analysis; format: functional, organism-based; settings: MRC5, dose microM 0.187-3, time 18.0 hrs
Human betaherpesvirus 5 [17] = test: Antiviral activity against human Cytomegalovirus harboring ANCHOR infected in human ARPE-19 cells assessed as reduction in viral infection rate at 0.187 to 3 uM incubated for 18 hrs post infection by Hoechst 33342 staining based microscopic analysis; format: functional, cell-based; settings: dose microM 0.187-3, time 18.0 hrs
RK13 = test: Effect on gB expression in human Cytomegalovirus harboring ANCHOR infected in rabbit RK13 cells assessed as reduction in replication at late phase by at 5 uM by immunofluorescence assay; format: functional, cell-based; settings: Human betaherpesvirus 5
Human betaherpesvirus 5 [18] = test: Antiviral activity against human Cytomegalovirus infected in human ARPE-19 cells assessed as reduction in infection rate incubated for 12 days by Hoechst 33342 staining based microscopic analysis; format: functional, cell-based; settings: Human betaherpesvirus 5, ARPE-19, 288 h
Human betaherpesvirus 5 [19] = test: Antiviral activity against human Cytomegalovirus infected in human MRC5 cells assessed as reduction in viral infection rate at 0.75 uM incubated for 6 days by Hoechst 33342 staining based microscopic analysis; format: functional, cell-based; settings: time 6.0 day
Human betaherpesvirus 5 [20] = test: Induction of viral entry in human Cytomegalovirus harboring ANCHOR infected in human MRC-5 cells at 0.187 to 3 uM incubated for 18 hrs by Hoechst 33342 staining based microscopic analysis; format: functional, organism-based; settings: MRC5, dose microM 0.187-3, time 18.0 hrs
Human betaherpesvirus 5 [21] = test: Antiviral activity against human Cytomegalovirus infected in human ARPE-19 cells assessed as reduction in virus-induced cytopathic effect at 0.75 uM incubated for 10 days by Hoechst 33342 staining based microscopic analysis; format: functional, cell-based; settings: time 10.0 day
Human betaherpesvirus 5 [22] = test: Antiviral activity against human Cytomegalovirus harboring ANCHOR assessed as reduction in infection rate incubated for 1 hr followed by cell line addition and measured after 24 hrs by Hoechst 33342 staining based microscopic analysis; format: functional; settings: ARPE-19, dose microM 0.187-3, time 25.0 hrs
Human betaherpesvirus 5 [23] = test: Antiviral activity against Human cytomegalovirus harboring ANCHOR infected in ARPE-19 cells assessed as reduction in viral infection at 0.75 uM measured after 6 days by microscopic analysis relative to control; format: functional, cell-based; settings: time 6.0 day
Human betaherpesvirus 5 [24] = test: Antiviral activity against human Cytomegalovirus infected in human ARPE-19 cells assessed as reduction in viral replication incubated for 12 days by Hoechst 33342 staining based microscopic analysis; format: functional, cell-based; settings: Human betaherpesvirus 5, ARPE-19, 288 h
Human betaherpesvirus 5 [25] = test: Antiviral activity against human Cytomegalovirus infected in human MRC5 cells assessed as reduction in viral replication incubated for 6 days by Hoechst 33342 staining based microscopic analysis; format: functional, cell-based; settings: Human betaherpesvirus 5, MRC5, 144 h
[26] = Selectivity index, ratio of CC50 for human MRC5 cells to IC50 for human Cytomegalovirus infected in human ARPE-19 cells incubated for 13 days; format: toxicity, cell-based; settings: time 6 day, read-out: Ratio CC50/IC50
Human betaherpesvirus 5 [27] = test: Antiviral activity against human Cytomegalovirus infected in human ARPE-19 cells assessed as reduction in viral replication incubated for 13 days by Hoechst 33342 staining based microscopic analysis; format: functional, cell-based; settings: Human betaherpesvirus 5, ARPE-19, 312 h
Human betaherpesvirus 5 [28] = test: Antiviral activity against human Cytomegalovirus UL56 infected in human MRC5 cells assessed as reduction in infection rate incubated for 6 days by Hoechst 33342 staining based microscopic analysis; format: functional, cell-based; settings: Human betaherpesvirus 5, UL56, MRC5, 144 h
Human betaherpesvirus 5 [29] = test: Antiviral activity against letermovir resistant Cytomegalovirus UL56 R369G infected in human MRC5 cells assessed as reduction in infection rate at 600 nM incubated for 6 days by Hoechst 33342 staining based microscopic analysis; format: functional, cell-based; settings: time 6.0 day
Human betaherpesvirus 5 [30] = test: Antiviral activity against human Cytomegalovirus infected in human ARPE-19 cells assessed as reduction in infection rate incubated for 10 days by Hoechst 33342 staining based microscopic analysis; format: functional, cell-based; settings: Human betaherpesvirus 5, ARPE-19, 240 h; read-out: IC50
[31] = Selectivity index, ratio of CC50 for human MRC5 cells to IC50 for human Cytomegalovirus infected in human ARPE-19 cells incubated for 10 days; format: toxicity, cell-based; settings: time 6 day, read-out: Ratio CC50/IC50
Human betaherpesvirus 5 [32] = test: Antiviral activity against ganciclovir resistant Cytomegalovirus UL54 D301N infected in human MRC5 cells assessed as reduction in viral DNA replication incubated for 6 days by Hoechst 33342 staining based microscopic analysis; format: functional, cell-based; settings: time 6.0 day
[33] = Drug metabolism in human ARPE-19 cell culture at 10 uM incubated for 10 days; format: ADME; settings: arpe-19, 240 h, time 10 day
[34] = Drug uptake in rabbit RK13 cells incubated for 24 hrs by Hoechst staining based microscopic analysis; format: ADME, cell-based, Oryctolagus cuniculus; settings: rk13, 24 h
Human betaherpesvirus 5 [35] = test: Antiviral activity against ganciclovir resistant Cytomegalovirus UL54 D301N infected in human MRC5 cells assessed as reduction in infection rate incubated for 6 days by Hoechst 33342 staining based microscopic analysis; format: functional, cell-based; settings: time 6.0 day
[36] = Cytotoxicity against human MRC5 cells assessed as assessed as number of fluorescent nuclei incubated for 6 days by Hoechst 33342 staining based microscopic analysis; format: cell-based; settings: time 6 day
[37] = Cytotoxicity against human ARPE-19 cells assessed as assessed as number of fluorescent nuclei incubated for 6 days by Hoechst 33342 staining based microscopic analysis; format: cell-based; settings: time 6 day

SMILES: Fc1c(F)c(F)c(-c2c3nc(c4ccc([nH]4)c(-c4c(F)c(F)c(F)c(F)c4F)c4ccc([nH]4)c(-c4c(F)c(F)c(F)c(F)c4F)c4ccc2[nH]4)C=C3)c(F)c1F
Activity (Human betaherpesvirus 5 [1]): Active
Activity (Human betaherpesvirus 5 [2]): inactive
Activity (Human betaherpesvirus 5 [3]): Active
Activity (Human betaherpesvirus 5 [4]): Active
Activity (Human betaherpesvirus 5 [5]): inactive
selectivity ratio at 144 h [6]: 2.75
IC50 (Human betaherpesvirus 5 [7]): 1.19 µM
Activity (Human betaherpesvirus 5 [8]): inactive
Activity (Human betaherpesvirus 5 [9]): Active
Activity (Human betaherpesvirus 5 [10]): Dose-dependent effect
Activity (Human betaherpesvirus 5 [11]): inactive
selectivity ratio at 144 h [12]: 27
Activity (Human betaherpesvirus 5 [13]): inactive
CC50 at 144 h [14]: 3.27 µM
Activity (Human betaherpesvirus 5 [15]): Active
Activity (Human betaherpesvirus 5 [16]): Dose-dependent effect
Activity (Human betaherpesvirus 5 [17]): inactive
Activity (RK13): Active
IC50 (Human betaherpesvirus 5 [18]): 0.96 µM
Activity (Human betaherpesvirus 5 [19]): Active
Activity (Human betaherpesvirus 5 [20]): Dose-dependent effect
Activity (Human betaherpesvirus 5 [21]): Active
Activity (Human betaherpesvirus 5 [22]): Dose-dependent effect
Activity (Human betaherpesvirus 5 [23]): Active

IC50 (Human betaherpesvirus 5 [24]): 2.3 µM
IC50 (Human betaherpesvirus 5 [27]): 2.3 µM
SMILES: Fc1ccc(F)c(-c2c3nc(c4ccc([nH]4)c(-c4c(F)ccc(F)c4F)c4ccc([nH]4)c(-c4c(F)ccc(F)c4F)c4ccc2[nH]4)C=C3)c1F
selectivity ratio at 144 h [6]: > 28
IC50 (Human betaherpesvirus 5 [25]): 1.8 µM
CC50 at 144 h [14]: > 50 µM
selectivity ratio at 144 h [26]: > 21

SMILES: COc1cccc(N2CCN(C3=Nc4c(F)cccc4[C@H](CC(=O)O)N3c3cc(C(F)(F)F)ccc3OC)CC2)c1 [LETERMOVIR]
IC50 (Human betaherpesvirus 5 [28]): 0.004 µM

SMILES: Fc1cc(F)c(F)c(-c2c3nc(c4ccc([nH]4)c(-c4c(F)c(F)cc(F)c4F)c4ccc([nH]4)c(-c4c(F)c(F)c(F)c(F)c4F)c4ccc2[nH]4)C=C3)c1F
Activity (Human betaherpesvirus 5 [29]): Active
selectivity ratio at 144 h [6]: 24.9
IC50 (Human betaherpesvirus 5 [7]): 0.65 µM
IC50 (Human betaherpesvirus 5 [30]): 0.02 µM
selectivity ratio at 144 h [31]: 416
CC50 at 144 h [14]: 16.2 µM
Activity (Human betaherpesvirus 5 [32]): Active
Drug metabolism [33]: Metabolite_Notdetected
Drug uptake [34]: Active
Activity (Human betaherpesvirus 5 [35]): Active

IC50 (Human betaherpesvirus 5 [18]): 0.16 µM
SMILES: Fc1cc(F)c(F)c(-c2c3nc(c4ccc([nH]4)c(-c4c(F)c(F)cc(F)c4F)c4ccc([nH]4)c(-c4c(F)c(F)cc(F)c4F)c4ccc2[nH]4)C=C3)c1F
CC50 at 144 h [36]: 3.4 µM
selectivity ratio at 144 h [6]: > 24
IC50 (Human betaherpesvirus 5 [7]): 1.04 µM
selectivity ratio at 144 h [12]: > 312
CC50 at 144 h [14]: 25.3 µM
CC50 at 144 h [37]: 22.5 µM
